# Patent publication US20240300977A1, “INHIBITORS OF DNA-DEPENDENT PROTEIN KINASE AND COMPOSITIONS AND USES THEREOF” (Intellia Therapeutics, Inc., priority 2021, published 2024)
# System: T cells
# Assay: HD3 TCR insertion within TRAC in T cells, flow cytometry
# Assay type: cell-based, human
# Details: Spy Cas9 + Compound 4, HD3 TCR AAV, day 7
# Protocol: 48 hours post-activation, T cells were harvested, centrifuged at 500 g for 5 min, and resuspended at a concentration of 6.41×10^5 T cells/mL in T cell plating media (TCPM): a serum-free version of TCGM containing 400 U/mL recombinant human interleukin-2 (Peprotech, Cat. 200-02), 10 ng/mL recombinant human interleukin 7 (Peprotech, Cat. 200-07), and 10 ng/mL recombinant human interleukin 15 (Peprotech, Cat. 200-15). 50 μL of T cells in TCPM (3.2×10^4 T cells) were added per well to be treated in flat-bottom 96-well plates.
# LNPs were generated as described in Example 1 at a ratio of 50/38.5/10/1.5 (Lipid A/cholesterol/DSPC/PEG2k-DMG).
# Mix “A” was serially diluted 1:2 in TCTM, and mixed 1:1 by volume with mix “B”. 25 μL of the resulting solution was added to 3.2×10^4 T cells in 96-well plates.
# Next, a repair template in the form of an adeno-associated virus (AAV) encoding the HD3 TCR (SEQ ID NO: 18 was diluted in TCTM to 3.84×10^11 genome copies/mL in the presence or absence of Compound 4 diluted to 2 μM. 25 μL of the resulting solution was added to T cells that were treated with LNPs in the prior step. To enable editing assessments by NGS without the interference of repair templates, an arm of this experiment received 25 μL of TCTM with or without Compound 4 diluted to 2 μM in the absence of AAVs.
# Following the addition of LNPs, repair templates and Compound 4, T cells were incubated at 37° C. for 48 hours, at which time T cells were centrifuged at 500 g for 5 min, resuspended in 200 μL of TCGM and returned to the incubator.
# Also on day 4 post-treatment, cells that received AAV templates were mixed and sub-cultured at a 1:4 ratio (v/v) in TCGM. On day 7 post-treatment, cells that received AAV templates were evaluated by flow cytometry.
# On day 7 post-LNP treatment, 50 μL of cells were transferred to U-bottom 96-well plates and spun down for 5 min at 500 g. The supernatant was discarded, cells were resuspended in 100 μL of FACS buffer containing Viakrome 808 (Beckman C., Cat. C36628) (1:100), PC5.5 anti-CD3 (Biolegend, Cat. 317336) (1:200), BV421 anti-CD4 (Biolegend, Cat. 317434) (1:100), BV785 anti-CD8 (Biolegend, Cat. 301046) (1:100), and anti-V07.2 (Beckman C., IM3604) (1:50) and stained for 30 min at 4° C. in the dark. Cells were washed once with 200 μL of FACS buffer, resuspended in 100 μL of FACS buffer and processed on a Cytoflex LX flow cytometer.
compound,measurement,setting,value
"Cc1cc2ncnn2cc1Nc1ncc2c(n1)n(C1CCC3(CC1)CC3)c(=O)n2C [Compound 4, 7-methyl-2-((7-methyl-[1,2,4]triazolo[1,5-a]pyridin-6-yl)amino)-9-(spiro[2.5]octan-6-yl)-7,9-dihydro-8H-purin-8-one]",Mean CD3^+ Vβ7.2^+ T Cells %,sgRNA 0 μg/mL,0.79%
same,Mean CD3^+ Vβ7.2^+ T Cells %,sgRNA 0.026 μg/mL,35.20%
same,Mean CD3^+ Vβ7.2^+ T Cells %,sgRNA 0.052 μg/mL,44.50%
same,Mean CD3^+ Vβ7.2^+ T Cells %,sgRNA 0.104 μg/mL,52.60%
same,Mean CD3^+ Vβ7.2^+ T Cells %,sgRNA 0.209 μg/mL,56.10%
same,Mean CD3^+ Vβ7.2^+ T Cells %,sgRNA 0.418 μg/mL,53.80%
same,Mean CD3^+ Vβ7.2^+ T Cells %,sgRNA 0.835 μg/mL,53.30%
same,Mean CD3^+ Vβ7.2^+ T Cells %,sgRNA 1.67 μg/mL,49.65%
